Measurements reported in ChEMBL document CHEMBL5338741, “Discovery of an In Vivo Chemical Probe for BCL6 Inhibition by Optimization of Tricyclic Quinolinones” (J Med Chem, 2023).

Tests used:
[1] = molecular target: BCL-6/NCOR2 (Homo sapiens, UniProt P41182); format: cell-based, HEK293T
[2] = molecular target: B-cell lymphoma 6 protein (Homo sapiens, UniProt P41182)
[3] = molecular target: BCL-6/NCOR2 (Homo sapiens) (UniProt Q9Y618+P41182); details: HEK293T, time 6.0 hrs
Sequence of BCL-6/NCOR2 (Homo sapiens) (Q9Y618 whole entry, looked up, other chains not shown): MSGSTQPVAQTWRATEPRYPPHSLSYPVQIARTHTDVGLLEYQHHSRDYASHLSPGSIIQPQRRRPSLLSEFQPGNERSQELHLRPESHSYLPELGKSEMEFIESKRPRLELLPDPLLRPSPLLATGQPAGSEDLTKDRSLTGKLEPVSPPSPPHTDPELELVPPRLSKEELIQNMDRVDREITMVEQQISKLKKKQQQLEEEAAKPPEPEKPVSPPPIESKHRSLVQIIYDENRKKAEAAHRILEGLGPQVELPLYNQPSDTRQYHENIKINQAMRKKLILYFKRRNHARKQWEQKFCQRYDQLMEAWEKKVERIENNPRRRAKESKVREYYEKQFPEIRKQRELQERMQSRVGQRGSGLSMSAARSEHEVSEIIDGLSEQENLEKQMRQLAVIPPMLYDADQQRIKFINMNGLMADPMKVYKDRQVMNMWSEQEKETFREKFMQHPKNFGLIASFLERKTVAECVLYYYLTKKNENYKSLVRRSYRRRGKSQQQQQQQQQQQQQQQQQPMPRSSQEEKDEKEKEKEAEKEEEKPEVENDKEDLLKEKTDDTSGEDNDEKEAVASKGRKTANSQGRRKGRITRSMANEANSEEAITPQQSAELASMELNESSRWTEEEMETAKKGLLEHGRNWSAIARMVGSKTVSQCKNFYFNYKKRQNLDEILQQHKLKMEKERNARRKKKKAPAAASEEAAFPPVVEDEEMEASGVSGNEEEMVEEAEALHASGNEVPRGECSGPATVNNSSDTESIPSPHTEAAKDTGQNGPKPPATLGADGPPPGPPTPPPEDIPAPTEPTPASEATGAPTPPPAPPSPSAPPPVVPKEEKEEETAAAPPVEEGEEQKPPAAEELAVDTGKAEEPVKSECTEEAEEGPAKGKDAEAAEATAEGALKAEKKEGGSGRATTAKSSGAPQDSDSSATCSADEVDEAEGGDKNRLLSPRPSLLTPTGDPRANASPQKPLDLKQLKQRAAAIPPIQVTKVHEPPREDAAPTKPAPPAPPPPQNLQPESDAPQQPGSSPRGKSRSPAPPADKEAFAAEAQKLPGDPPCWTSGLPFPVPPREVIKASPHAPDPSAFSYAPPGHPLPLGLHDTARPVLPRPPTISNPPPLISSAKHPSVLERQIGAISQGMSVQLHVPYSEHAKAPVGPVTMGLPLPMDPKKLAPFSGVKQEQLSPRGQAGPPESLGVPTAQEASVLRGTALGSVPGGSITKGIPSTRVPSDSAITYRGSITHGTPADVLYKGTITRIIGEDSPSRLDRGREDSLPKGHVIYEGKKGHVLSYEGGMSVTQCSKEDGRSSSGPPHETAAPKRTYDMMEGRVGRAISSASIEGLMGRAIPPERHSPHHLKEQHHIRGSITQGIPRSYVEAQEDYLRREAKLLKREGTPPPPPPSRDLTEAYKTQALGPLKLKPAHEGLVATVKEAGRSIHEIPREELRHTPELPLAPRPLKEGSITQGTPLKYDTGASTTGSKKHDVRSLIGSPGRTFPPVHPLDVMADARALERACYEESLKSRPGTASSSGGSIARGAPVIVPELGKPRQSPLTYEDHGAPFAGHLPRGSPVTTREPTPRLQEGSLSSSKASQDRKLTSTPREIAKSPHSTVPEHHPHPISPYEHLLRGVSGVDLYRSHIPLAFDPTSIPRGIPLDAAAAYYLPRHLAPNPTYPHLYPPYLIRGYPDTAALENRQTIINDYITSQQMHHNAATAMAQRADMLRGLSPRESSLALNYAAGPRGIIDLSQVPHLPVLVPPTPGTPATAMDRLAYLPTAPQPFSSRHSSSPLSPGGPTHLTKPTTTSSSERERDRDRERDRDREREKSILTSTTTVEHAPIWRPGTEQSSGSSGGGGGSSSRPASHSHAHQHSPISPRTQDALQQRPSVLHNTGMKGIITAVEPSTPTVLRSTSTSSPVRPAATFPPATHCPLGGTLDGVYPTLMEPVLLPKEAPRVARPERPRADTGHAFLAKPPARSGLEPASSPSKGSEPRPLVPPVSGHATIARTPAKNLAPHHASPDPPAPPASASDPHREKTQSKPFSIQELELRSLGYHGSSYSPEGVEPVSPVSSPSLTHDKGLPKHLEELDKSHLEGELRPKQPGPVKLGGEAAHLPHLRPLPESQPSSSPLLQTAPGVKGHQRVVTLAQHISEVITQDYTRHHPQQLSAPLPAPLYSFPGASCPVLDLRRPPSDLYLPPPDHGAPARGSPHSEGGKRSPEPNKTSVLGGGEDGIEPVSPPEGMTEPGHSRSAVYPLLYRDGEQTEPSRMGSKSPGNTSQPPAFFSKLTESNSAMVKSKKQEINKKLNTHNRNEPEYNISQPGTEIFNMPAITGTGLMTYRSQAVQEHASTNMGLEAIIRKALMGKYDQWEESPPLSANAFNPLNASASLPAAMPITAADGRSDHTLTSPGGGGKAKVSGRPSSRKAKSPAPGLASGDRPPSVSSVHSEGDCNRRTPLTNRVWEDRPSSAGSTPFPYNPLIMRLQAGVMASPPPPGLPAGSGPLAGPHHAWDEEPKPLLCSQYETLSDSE

fIC50 [3] [nM]	fIC90 [3] [nM]	SMILES	IC50 [1] [nM]	IC50 [2] [nM]	IC90 [3] [nM]
		CC(=O)N1CC2CCC(C1)N2c1ncc(Cl)c(Nc2ccc3c(c2)c2c(c(=O)n3C)OCC(F)(F)[C@H](C3CC3)N2)n1	26.9	0.9	
8.9	50	Cn1c(=O)c2c(c3cc(Nc4nc(N5CC(F)(F)C5)ncc4Cl)ccc31)N[C@@H](C1CC1)C(F)(F)CO2			
6.8	44	Cn1c(=O)c2c(c3cc(Nc4ccnc(F)c4Cl)ccc31)N[C@@H](C1CC1)C(F)(F)CO2			
		CC(=O)N1C2CCC1CN(c1ncc(Cl)c(Nc3ccc4c(c3)c3c(c(=O)n4C)OCC(F)(F)[C@H](C4CC4)N3)n1)C2	41	1.9	

SMILES	fIC50 [3] [nM]	fIC90 [3] [nM]	IC50 [1] [nM]	IC50 [2] [nM]	IC90 [3] [nM]
Cn1c(=O)c2c(c3cc(Nc4nc(N5C6CCC5COC6)ncc4Cl)ccc31)N[C@@H](C1CC1)C(F)(F)CO2	143	42			3.2
